One compound from article PMC7516806, “Hybrid Antimicrobial Peptide Targeting Staphylococcus aureus and Displaying Anti-infective Activity in a Murine Model” (Frontiers in Microbiology, 2020) can be followed below.

In brackets after ≈: the same amount, converted by molar mass. Positions of bridges follow the written chain, without caps; N, C: chain ends. Residues, ends and D or L forms follow the SMILES beside them. Bounds are passed on as bounds.

The test system of series [1] is S. typhimurium 14028. The series can be described thus: MIC, modified microtiter dilution. It is filed as cell-based, Salmonella typhimurium. As to conditions: MHB, 2–7 × 10^5 CFU/ml, 37°C, 24 h, no turbidity, at least three independent repeats. From the text: (§1) The experiment was repeated at least three times independently.
Series [2] concerns S. typhimurium 7731. The series can be described thus: MIC, modified microtiter dilution. The series is classed as cell-based, Salmonella typhimurium. Particulars: MHB, 2–7 × 10^5 CFU/ml, 37°C, 24 h, no turbidity, at least three independent repeats.
Source text: as §1

Series [3] concerns P. aeruginosa 27853. The series can be described thus: MIC, modified microtiter dilution. It is filed as cell-based, Pseudomonas aeruginosa. As to conditions: MHB, 2–7 × 10^5 CFU/ml, 37°C, 24 h, no turbidity, at least three independent repeats.
Source text: as §1

In series [4] the test system is S. aureus 25923. The series can be described thus: MIC, modified microtiter dilution. It is filed as cell-based, Staphylococcus aureus. Particulars: MHB, 2–7 × 10^5 CFU/ml, 37°C, 24 h, no turbidity, at least three independent repeats.
Source text: as §1

Series [5] has as its system S. aureus 29213. The experiment in a line: MIC, modified microtiter dilution. The series is classed as cell-based, Staphylococcus aureus. Particulars: MHB, 2–7 × 10^5 CFU/ml, 37°C, 24 h, no turbidity, at least three independent repeats.
Source text: as §1

Series [6] has as its system MRSA 43300. The series is classed as cell-based, Staphylococcus aureus. Particulars: MHB, 2–7 × 10^5 CFU/ml, 37°C, 24 h, no turbidity, at least three independent repeats.
Source text: as §1

Series [7] deals with L. rhamnosus 1.0385. The experiment in a line: MIC, modified microtiter dilution. It is filed as cell-based, Lactobacillus rhamnosus. As to conditions: 2–7 × 10^5 CFU/ml, 37°C, 24 h, no turbidity, at least three independent repeats.
Source text: as §1

The test system of series [8] is L. rhamnosus 1.0911. The experiment in a line: MIC, modified microtiter dilution. The series is classed as cell-based, Lactobacillus rhamnosus. Particulars: 2–7 × 10^5 CFU/ml, 37°C, 24 h, no turbidity, at least three independent repeats.
Source text: as §1

In series [9] the test system is L. rhamnosus 1.0936. The experiment in a line: MIC, modified microtiter dilution. It is filed as cell-based, Lactobacillus rhamnosus. As to conditions: 2–7 × 10^5 CFU/ml, 37°C, 24 h, no turbidity, at least three independent repeats.
Source text: as §1

For series [10], the system named is L. rhamnosus 7469. The experiment in a line: MIC, modified microtiter dilution. The series is classed as cell-based, Lactobacillus rhamnosus. As to conditions: 2–7 × 10^5 CFU/ml, 37°C, 24 h, no turbidity, at least three independent repeats.
Source text: as §1

Series [11] relates to S. aureus ATCC 29213. The series can be described thus: Time-dependent killing kinetics. As to conditions: six independent trials. The series is classed as cell-based, Staphylococcus aureus. The procedure:
The logarithmic phase S. aureus ATCC 29213 cells were harvested by centrifugation at 1000 × g for 5 min, washed twice with PBS, and diluted to 2–7 × 10^5 CFU/mL. S. aureus was treated with AMPs at various concentrations, including 0.125, 0.25, 0.5, 1, and 2 × MIC. At various time intervals (5 s, 10 s, 30 s, 1 min, 5 min, 10 min, and 30 min), 50 μL of bacterial solution was diluted and plated on MHA plates. Bacterial colonies were counted after 24 h of incubation at 37°C. The results were carried out in six independent trials.

The subject of series [12] is Staphylococcus aureus 29213. The experiment in a line: Propidium iodide uptake assay. It is filed as cell-based. As to conditions: 0.5 × MIC, MIC and 2 × MIC; 10 μg/mL PI; ex 535 nm, em 617 nm. As to the method:
Staphylococcus aureus 29213 was washed three times with buffer (5 mM HEPES, 5 mM glucose, pH 7.4) after the bacterium grew to the mid-log phase and then diluted to an OD600 = 0.05. Propidium iodide was then added to the final concentration of 10 μg/mL and incubated for 30 min at 4°C. The peptides were added to 12-well plates, which were filled with 2 mL of the cell suspension. An F-4500 fluorescence spectrophotometer (Hitachi, Japan) was employed to measure the fluorescence value at an excitation wavelength of 535 nm and an emission wavelength of 617 nm. Maximal augmentation was monitored, and the fluorescence of the mixture of bacteria and dye served as the blank control ([Morita et al., 2015]).

The subject of series [13] is RAW 264.7 cells. The series can be described thus: Cytotoxicity, MTT dye reduction assay. It is filed as cell-based, murine. As to the method:
The cytotoxicity of peptides was determined by healthy human erythrocytes and the murine macrophage cell line RAW 264.7 via a hemolysis assay and MTT dye reduction assay, respectively ([Wang et al., 2018]). In the hemolysis assay, fresh hRBCs from healthy people were centrifuged for 5 min at 1,000 × g and then washed three times with PBS (pH = 7.2). The 100 μL erythrocyte suspension and peptides were incubated for 1.5 h in an incubator at 37°C. The 96-well plates were centrifuged at 1,000 × g for 5 min, and the supernatants were carefully aspirated. The absorbance at 570 nm indicated the leakage of hemoglobin. The hRBCs in the PBS sample was used as the negative control, and 0.1% Triton X-100 addition served as the positive control. In the MTT dye reduction assay, 1.0–2.0 × 10^5 cells were plated in 96-well plates and then treated with various concentrations of peptides for 4 h at 37°C in a 5% CO2 incubator. Subsequently, 50 μL of MTT was added to the plated cells at a final concentration of 0.5 mg/mL and incubated for 4 h. Then, the cells were centrifuged at 1000 × g for 5 min, and the supernatants were discarded. Formazan crystals were dissolved in 150 μL of DMSO, and the OD570 nm was measured using a microplate reader (TECAN GENios F129004; TECAN, Austria). The experiment was repeated three times independently.
(In general: Tetrazolium dyes change colour on reduction, which living cells bring about.)

The subject of series [14] is S. aureus 29213. The series can be described thus: Histology (HE) of infected skin tissue. The series is classed as in vivo, ICR mice. Particulars: 24 h after injection of S. aureus. The procedure: To assess the antimicrobial activity of the peptide in vivo, a mouse model of subcutaneous infection was used ([Huang et al., 2011a]; [Omolo et al., 2017]). Female Institute for Cancer Research (ICR) mice (SPF, 20–25 g) were purchased from WeiTonglihua Co., Ltd. (Beijing, China), with eight animals per group. The mice were shaved on their backs and disinfected. S. aureus 29213 (100 μL) at a concentration of 1 × 10^8 CFU/mL was injected into the superficial skin of the mice. The mice were divided into four groups (n = 4), as follows: S. aureus + saline, S. aureus + S2 (80× MIC, 100 μL), S. aureus + vancomycin (Van) (80× MIC, 100 μL), and saline. S2, vancomycin, and saline were injected at the same site 1 h after infection. The mice were monitored over 24 h in an environmentally controlled room at 25 ± 1°C and 55 ± 5% relative humidity with a 12 h light/dark cycle.
To image the infected skin tissues, the mice were euthanized 24 h after the injection of S. aureus. Samples were fixed in 4% buffered paraformaldehyde and subjected to hematoxylin/eosin (HE) staining. The antimicrobial activity in vivo was determined by colony counting of infected skin samples. Skin homogenates were serially diluted in saline and incubated at 37°C for 24 h.

For series [15], the system named is mouse skin. The series can be described thus: Skin toxicity in vivo, TUNEL assay. Further details: species or system ICR mice. As to conditions: 100 μL at 80 × MIC injected into skin, 24 h. As to the method: Anesthetized mice were shaved on their backs and disinfected. A total of 100 μL of S2 (80 × MIC) was injected into the skin. Equal volumes of saline and 100% DMSO were used as the negative and positive controls, respectively. The skin was removed from the injection sites for tissue processing after 24 h. OCT-embedded slides were stained using the DeadEnd^TM Fluorometric TUNEL System for the detection of apoptotic cells and counterstained with 4,6-diamidino-2-phenylindole (DAPI). Photographs were taken using a microscope ([Huang et al., 2011a]).

As to `CC(C)C[C@H](NC(=O)[C@H](CC(C)C)NC(=O)[C@H](Cc1c[nH]c2ccccc12)NC(=O)[C@H](Cc1c[nH]c2ccccc12)NC(=O)[C@H](Cc1c[nH]c2ccccc12)NC(=O)[C@H](CCCNC(=N)N)NC(=O)[C@@H]1CSSC[C@H](N)C(=O)N[C@@H](C)C(=O)N[C@@H](CO)C(=O)N[C@@H](Cc2ccc(O)cc2)C(=O)N[C@@H](Cc2ccccc2)C(=O)N1)C(N)=O` [Peptide S2] (H-CASYFCRWWWLL-NH2; disulfide 1-6; N-terminus assumed), the “MIC S. typhimurium 14028” value in series [1] was over 64 µM. The “MIC S. typhimurium 7731” value in series [2] was over 64 µM. The “MIC P. aeruginosa 27853” value in series [3] was over 64 µM. In [4], the “MIC S. aureus 25923” value came to 8 µM (≈ 13 µg/mL). Also, in series [5], the “MIC S. aureus 29213” value turned out to be 8 µM (≈ 13 µg/mL). In series [6], the “MIC MRSA 43300” value was determined as 8 µM (≈ 13 µg/mL). The “MIC L. rhamnosus 1.0385” value in series [7] is over 64 µM. The “MIC L. rhamnosus 1.0911” value in series [8] was over 64 µM. For the same compound, the “MIC L. rhamnosus 1.0936” value in series [9] is over 64 µM. In addition, the “MIC L. rhamnosus 7469” value in [10] was over 64 µM. Further, in [11] (0.5 × MIC, after 5 s of exposure, PBS, 2–7 × 10^5 CFU/mL), the “bacterial reduction in S. aureus” value worked out at 2 log10. Moreover, the figures for the “time of peptide exposure for 100% bacterial killing” value in [11] (at 2 × MIC) and in [11] (at MIC) were 30 s and 60 s, respectively. For the same compound, in [12], the “PI uptake (PI fluorescence)” value was “rapidly disrupted the bacterial membrane and caused PI uptake”. Also, the “killing activity against RAW 264.7 cells” value in [13] was “no killing activity against RAW 264.7 cells”. In series [13] (highest concentration of 128 μM, 4 h, three independent repeats), the “RAW 264.7 cell survival rate” value is given as 105%. Moreover, the “histomorphological changes of skin tissue (HE)” value in [14] is “good recovery”. Besides, the “apoptotic cells in mouse skin (TUNEL)” value in series [15] is given as “no apparent epidermal apoptosis”.
